In ChEMBL document CHEMBL1157610, “Bis(morpholino-1,3,5-triazine) derivatives: potent adenosine 5'-triphosphate competitive phosphatidylinositol-3-kinase/mammalian target of rapamycin inhibitors: discovery of compound 26 (PKI-587), a highly efficacious dual inhibitor” (J Med Chem, 2010):
In brackets after ≈: the same amount, converted by molar mass. Activity calls are given as the source filed them. No cut-off for these calls is given here.

Legend:
[1] = target: Serine/threonine-protein kinase mTOR (Homo sapiens, UniProt P42345)
[2] = target: Phosphatidylinositol 4,5-bisphosphate 3-kinase catalytic subunit gamma isoform (Homo sapiens, UniProt P48736)
[3] = target: Phosphatidylinositol 4,5-bisphosphate 3-kinase catalytic subunit alpha isoform (Homo sapiens, UniProt P42336)
[4] = Membrane permeability at pH 7.4 by PAMPA assay; format: ADME; conditions: read-out: permeability
[5] = Solubility at pH 7.4; format: physicochemical; conditions: buffer
MDA-MB-361 [6] = assay: cells; conditions: Homo sapiens
cells = conditions: Homo sapiens, PC3MM2
Mus musculus [7] = assay: Antitumor activity against human MDA-MB-361 cells xenografted mouse model assessed as minimum effective dose; format: functional; conditions: read-out: MED
[8] = Last AUC in mouse at 25 mg/kg, iv; format: ADME, organism-based; parameters: dose 25 mg/kg, route intravenous; conditions: in vivo
[9] = target: RAC-alpha serine/threonine-protein kinase (Homo sapiens) (UniProt P31749); assay: Inhibition of Akt S473 phosphorylation in human MDA-MB-361 cells xenografted mouse model upto 36 hrs; format: cell-based
Mus musculus [10] = assay: Antitumor activity against human MDA-MB-361 cells xenografted mouse model assessed as maximum tolerated single dose; format: functional
[11] = Volume of distribution at steady state in mouse at 25 mg/kg, iv; format: ADME, organism-based; parameters: dose 25 mg/kg, route intravenous; conditions: in vivo, read-out: Vdss
NCI-H1975 = assay: Antitumor activity against human NCI-H1975 cells xenografted orthotopic mouse model assessed as survival at 25 mg/kg once weekly for 7 weeks relative to untreated control; format: functional
[12] = target: Glycogen synthase kinase-3 (Homo sapiens) (UniProt P49840+P49841); assay: Inhibition of GSK3 kinase phosphorylation in human MDA-MB-361 cells by Western blotting; format: cell-based
[13] = target: T1, Nitric oxide synthase 3 (Homo sapiens) (UniProt P29474); assay: Inhibition of eNOS phosphorylation in human MDA-MB-361 cells by Western blotting; format: cell-based
T1 sequence (whole entry): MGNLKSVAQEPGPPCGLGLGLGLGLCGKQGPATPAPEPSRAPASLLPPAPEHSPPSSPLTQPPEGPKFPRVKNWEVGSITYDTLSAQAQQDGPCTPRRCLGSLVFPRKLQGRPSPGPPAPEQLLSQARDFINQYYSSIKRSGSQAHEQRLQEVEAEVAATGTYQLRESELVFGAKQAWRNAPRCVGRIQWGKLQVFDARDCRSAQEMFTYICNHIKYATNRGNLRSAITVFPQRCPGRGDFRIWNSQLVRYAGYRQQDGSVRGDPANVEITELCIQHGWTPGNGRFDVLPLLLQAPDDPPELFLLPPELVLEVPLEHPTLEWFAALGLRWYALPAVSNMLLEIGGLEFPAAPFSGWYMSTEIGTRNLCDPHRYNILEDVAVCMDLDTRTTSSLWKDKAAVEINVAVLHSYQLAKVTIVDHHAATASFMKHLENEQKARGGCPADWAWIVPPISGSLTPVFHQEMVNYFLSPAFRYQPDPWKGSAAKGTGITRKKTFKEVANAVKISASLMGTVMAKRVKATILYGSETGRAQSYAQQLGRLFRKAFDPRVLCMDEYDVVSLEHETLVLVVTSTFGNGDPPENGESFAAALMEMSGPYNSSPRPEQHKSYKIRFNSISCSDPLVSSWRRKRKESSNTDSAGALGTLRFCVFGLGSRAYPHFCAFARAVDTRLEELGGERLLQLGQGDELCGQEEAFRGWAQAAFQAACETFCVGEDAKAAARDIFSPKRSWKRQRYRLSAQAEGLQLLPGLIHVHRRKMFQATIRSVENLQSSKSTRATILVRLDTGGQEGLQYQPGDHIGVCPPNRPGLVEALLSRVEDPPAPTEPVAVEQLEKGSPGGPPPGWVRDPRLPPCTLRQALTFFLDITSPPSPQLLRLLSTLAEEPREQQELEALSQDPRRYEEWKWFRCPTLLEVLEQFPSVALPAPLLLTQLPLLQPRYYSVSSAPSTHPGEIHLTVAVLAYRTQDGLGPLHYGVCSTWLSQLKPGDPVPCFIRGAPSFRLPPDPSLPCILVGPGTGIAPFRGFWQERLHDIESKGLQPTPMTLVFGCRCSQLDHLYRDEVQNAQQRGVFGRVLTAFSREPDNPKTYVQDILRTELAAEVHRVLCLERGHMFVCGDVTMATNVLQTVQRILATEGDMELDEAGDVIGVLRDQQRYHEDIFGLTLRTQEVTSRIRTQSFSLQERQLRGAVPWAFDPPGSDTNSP

[14] = target: Proline-rich AKT1 substrate 1 (Homo sapiens) (UniProt Q96B36); assay: Inhibition of PARS40 phosphorylation in human MDA-MB-361 cells by Western blotting; format: cell-based
MDA-MB-361 [15] = assay: Induction of PARP cleavage in human MDA-MB-361 cells xenografted mouse model upto 18 hrs; format: functional, cell-based
[16] = Plasma clearance in mouse at 25 mg/kg, iv; format: ADME, organism-based; parameters: dose 25 mg/kg, route intravenous
MDA-MB-361 [17] = assay: Antitumor activity against human MDA-MB-361 cells xenografted mouse model assessed as reduction in tumor volume at 20 mg/kg, iv on day 1, 5, 9; format: functional, organism-based; parameters: dose 20 mg/kg
[18] = Half life in mouse at 25 mg/kg, iv; format: ADME, organism-based; parameters: dose 25 mg/kg, route intravenous; conditions: in vivo
[19] = AUC (0 to infinity) in mouse at 25 mg/kg, iv; format: ADME, organism-based; parameters: dose 25 mg/kg, route intravenous, time infinity; conditions: plasma
[20] = […] in mouse at 25 mg/kg, iv; format: ADME, organism-based; parameters: dose 25 mg/kg, route intravenous; conditions: in vivo
[21] = target: RAC-alpha serine/threonine-protein kinase (Homo sapiens) (UniProt P31749); assay: Inhibition of Akt T308 phosphorylation in human MDA-MB-361 cells xenografted mouse model upto 36 hrs; format: cell-based

Sequence of Phosphatidylinositol 4,5-bisphosphate 3-kinase catalytic subunit gamma isoform (P48736 whole entry, canonical isoform): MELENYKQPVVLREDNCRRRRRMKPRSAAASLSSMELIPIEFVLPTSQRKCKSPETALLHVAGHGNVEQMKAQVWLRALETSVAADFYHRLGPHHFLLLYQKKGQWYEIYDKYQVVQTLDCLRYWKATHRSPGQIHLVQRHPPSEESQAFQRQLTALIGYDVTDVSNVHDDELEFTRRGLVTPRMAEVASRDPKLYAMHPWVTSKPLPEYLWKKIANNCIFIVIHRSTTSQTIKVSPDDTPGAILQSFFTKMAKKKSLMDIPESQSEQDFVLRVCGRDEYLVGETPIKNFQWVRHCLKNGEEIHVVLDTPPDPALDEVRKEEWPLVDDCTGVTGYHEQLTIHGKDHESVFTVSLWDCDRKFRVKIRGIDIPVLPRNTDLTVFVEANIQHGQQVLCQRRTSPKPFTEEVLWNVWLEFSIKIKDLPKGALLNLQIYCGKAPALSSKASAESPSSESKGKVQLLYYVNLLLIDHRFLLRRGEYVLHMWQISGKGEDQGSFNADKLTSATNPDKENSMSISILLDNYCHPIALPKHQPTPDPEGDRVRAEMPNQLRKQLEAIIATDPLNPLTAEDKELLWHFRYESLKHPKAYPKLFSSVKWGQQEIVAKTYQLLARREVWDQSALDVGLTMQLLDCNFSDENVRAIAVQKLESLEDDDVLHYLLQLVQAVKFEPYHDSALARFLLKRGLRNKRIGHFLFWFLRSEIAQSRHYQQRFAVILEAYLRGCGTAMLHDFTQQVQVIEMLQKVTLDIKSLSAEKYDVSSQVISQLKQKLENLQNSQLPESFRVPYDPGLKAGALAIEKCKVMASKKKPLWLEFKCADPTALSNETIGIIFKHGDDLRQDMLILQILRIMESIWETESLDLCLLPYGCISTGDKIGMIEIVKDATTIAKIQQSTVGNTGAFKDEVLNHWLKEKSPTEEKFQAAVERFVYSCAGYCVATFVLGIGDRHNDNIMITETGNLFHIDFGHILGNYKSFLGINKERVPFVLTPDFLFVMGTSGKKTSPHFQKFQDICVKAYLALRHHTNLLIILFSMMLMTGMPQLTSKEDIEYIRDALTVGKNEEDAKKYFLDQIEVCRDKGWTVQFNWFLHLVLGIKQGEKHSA
Sequence of Phosphatidylinositol 4,5-bisphosphate 3-kinase catalytic subunit alpha isoform (P42336 whole entry, canonical isoform): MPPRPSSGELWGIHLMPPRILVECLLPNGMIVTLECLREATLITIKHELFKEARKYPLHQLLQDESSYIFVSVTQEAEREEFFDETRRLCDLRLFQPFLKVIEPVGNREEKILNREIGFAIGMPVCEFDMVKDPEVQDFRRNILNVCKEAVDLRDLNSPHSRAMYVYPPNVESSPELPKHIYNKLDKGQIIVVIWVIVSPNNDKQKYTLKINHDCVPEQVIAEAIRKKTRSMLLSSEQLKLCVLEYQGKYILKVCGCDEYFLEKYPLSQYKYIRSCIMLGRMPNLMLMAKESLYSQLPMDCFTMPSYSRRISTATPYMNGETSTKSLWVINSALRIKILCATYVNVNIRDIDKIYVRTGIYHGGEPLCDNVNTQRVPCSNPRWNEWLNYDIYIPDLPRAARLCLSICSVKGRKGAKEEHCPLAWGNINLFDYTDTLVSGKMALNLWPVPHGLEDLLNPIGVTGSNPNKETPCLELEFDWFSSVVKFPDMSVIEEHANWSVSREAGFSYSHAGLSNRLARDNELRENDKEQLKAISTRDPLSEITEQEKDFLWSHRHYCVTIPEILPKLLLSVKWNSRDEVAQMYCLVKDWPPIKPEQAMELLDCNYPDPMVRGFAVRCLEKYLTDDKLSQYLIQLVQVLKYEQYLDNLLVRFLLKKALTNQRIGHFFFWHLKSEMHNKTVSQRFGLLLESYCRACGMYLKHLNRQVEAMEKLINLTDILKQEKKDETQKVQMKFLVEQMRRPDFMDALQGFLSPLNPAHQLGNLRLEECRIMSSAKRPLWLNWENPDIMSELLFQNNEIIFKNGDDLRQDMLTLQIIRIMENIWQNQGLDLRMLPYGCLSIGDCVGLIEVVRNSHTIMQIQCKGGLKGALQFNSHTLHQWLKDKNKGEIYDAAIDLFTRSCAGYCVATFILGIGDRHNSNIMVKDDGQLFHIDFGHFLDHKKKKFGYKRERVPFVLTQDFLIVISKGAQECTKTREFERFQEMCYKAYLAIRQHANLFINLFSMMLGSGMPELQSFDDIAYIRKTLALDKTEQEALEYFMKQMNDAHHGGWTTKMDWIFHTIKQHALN
Sequence of RAC-alpha serine/threonine-protein kinase (Homo sapiens) (P31749 whole entry): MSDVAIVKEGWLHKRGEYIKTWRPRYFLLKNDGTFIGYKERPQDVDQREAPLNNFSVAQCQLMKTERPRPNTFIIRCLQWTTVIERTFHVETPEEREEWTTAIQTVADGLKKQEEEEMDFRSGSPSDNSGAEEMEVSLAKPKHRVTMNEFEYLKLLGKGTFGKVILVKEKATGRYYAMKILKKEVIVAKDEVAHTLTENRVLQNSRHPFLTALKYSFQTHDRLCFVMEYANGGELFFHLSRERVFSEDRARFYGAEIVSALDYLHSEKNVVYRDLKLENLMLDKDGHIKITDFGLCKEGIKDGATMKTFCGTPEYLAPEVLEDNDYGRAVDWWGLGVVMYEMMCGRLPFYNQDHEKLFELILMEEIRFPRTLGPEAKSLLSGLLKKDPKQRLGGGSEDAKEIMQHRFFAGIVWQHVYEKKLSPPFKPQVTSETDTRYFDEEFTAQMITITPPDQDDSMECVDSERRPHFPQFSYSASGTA
Sequence of Glycogen synthase kinase-3 (Homo sapiens) (P49840 whole entry, looked up): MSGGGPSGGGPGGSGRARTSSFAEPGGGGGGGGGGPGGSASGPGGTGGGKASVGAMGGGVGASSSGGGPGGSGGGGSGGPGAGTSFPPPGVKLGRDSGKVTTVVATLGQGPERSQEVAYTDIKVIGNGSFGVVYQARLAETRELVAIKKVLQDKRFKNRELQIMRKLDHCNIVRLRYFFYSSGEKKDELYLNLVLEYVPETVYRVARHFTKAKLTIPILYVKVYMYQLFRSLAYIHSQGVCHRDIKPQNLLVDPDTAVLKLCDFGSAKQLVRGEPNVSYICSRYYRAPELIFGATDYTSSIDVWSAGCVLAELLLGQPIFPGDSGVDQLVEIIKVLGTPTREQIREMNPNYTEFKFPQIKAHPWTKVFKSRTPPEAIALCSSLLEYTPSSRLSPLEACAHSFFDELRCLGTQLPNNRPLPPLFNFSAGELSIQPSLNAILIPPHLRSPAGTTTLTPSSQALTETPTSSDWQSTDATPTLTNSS
Sequence of Glycogen synthase kinase-3 (Homo sapiens) (P49841 whole entry, looked up): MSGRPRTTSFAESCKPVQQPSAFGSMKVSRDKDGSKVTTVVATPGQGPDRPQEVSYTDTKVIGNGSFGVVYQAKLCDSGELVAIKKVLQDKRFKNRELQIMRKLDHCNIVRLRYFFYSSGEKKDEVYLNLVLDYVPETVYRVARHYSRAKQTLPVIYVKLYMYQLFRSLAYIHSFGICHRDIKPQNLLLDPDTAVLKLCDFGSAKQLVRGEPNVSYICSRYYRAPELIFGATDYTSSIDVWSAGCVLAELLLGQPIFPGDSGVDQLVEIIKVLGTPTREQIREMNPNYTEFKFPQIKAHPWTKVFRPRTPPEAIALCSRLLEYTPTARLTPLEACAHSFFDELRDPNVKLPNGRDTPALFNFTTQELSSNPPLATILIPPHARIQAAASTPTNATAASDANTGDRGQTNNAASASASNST

SMILES	IC50 [1] [nM]	IC50 [2] [nM]	IC50 [3] [nM]	Papp [4] [×10⁻⁶ cm/s]	solubility [5] [µg/mL]	IC50 (MDA-MB-361 [6]) [nM]	IC50 (cells) [nM]	further results
O=C(Nc1ccc(-c2nc(N3CCOCC3)nc(N3CCOCC3)n2)cc1)NN1CCCCC1	460	7470	1520	0.01	100 (≈ 213 µM)			
CN(C)CCNC(=O)c1ccc(NC(=O)Nc2ccc(-c3nc(N4CCOCC4)nc(N4CCOCC4)n3)cc2)cc1	0.5	8	0.4	0.1	7 (≈ 12.2 µM)	3	11	
CN1CCN(C(=O)c2ccc(NC(=O)Nc3ccc(-c4nc(N5CCOCC5)nc(N5CCOCC5)n4)cc3)cc2)CC1	1.4	9	0.5			10	13	
O=C(Nc1ccc(C(=O)N2CCC(N3CCCCC3)CC2)cc1)Nc1ccc(-c2nc(N3CCOCC3)nc(N3CCOCC3)n2)cc1	0.7				31 (≈ 47.3 µM)	3	7	
O=C(Nc1ccc(-c2nc(N3CCOCC3)nc(N3CCOCC3)n2)cc1)Nc1ccnnc1					1 (≈ 2.16 µM)	38	21	
O=C(Nc1ccc(CCO)cc1)Nc1ccc(-c2nc(N3CCOCC3)nc(N3CCOCC3)n2)cc1	1.8	21.5	1.5			36	39	
CNC(=O)Nc1ccc(-c2nc(N3CCOCC3)nc(N3CCOCC3)n2)cc1	11.3	789	350					
O=C(Nc1ccc(-c2nc(N3CCOCC3)nc(N3CCOCC3)n2)cc1)Nc1cccnc1	1.2		1.7	0.5			92	
O=C(Nc1ccc(C(=O)N2CCC(N3CCCC3)CC2)cc1)Nc1ccc(-c2nc(N3CCOCC3)nc(N3CCOCC3)n2)cc1	0.8	10	0.7		33.5 (≈ 52.2 µM)	3	8.3	
CN(C)C1CCN(C(=O)c2ccc(NC(=O)Nc3ccc(-c4nc(N5CCOCC5)nc(N5CCOCC5)n4)cc3)cc2)CC1 [GEDATOLISIB]				0.1	14 (≈ 22.7 µM)			minimal effective dose (Mus musculus [7]): 3 mg/kg; AUC [8]: 42600 ng·h/mL; Activity [9]: Active; MTD (Mus musculus [10]): 30 mg/kg; Vd [11]: 7.2 L/kg; Activity (NCI-H1975): 90%; Activity [12]: Active; Activity [13]: Active; Activity [14]: Active; Activity (MDA-MB-361 [15]): Active; clearance [16]: 7 mL/min/kg; Activity (MDA-MB-361 [17]): Active; half-life [18]: 14.4 h; AUC(0-inf) [19]: 57900 ng·h/mL; MRT [20]: 16.7 h; Activity [21]: Active
COC(=O)c1ccc(NC(=O)Nc2ccc(-c3nc(N4CCOCC4)nc(N4CCOCC4)n3)cc2)cc1				0.6	1 (≈ 1.92 µM)	115	45	
CNC(=O)c1ccc(NC(=O)Nc2ccc(-c3nc(N4CCOCC4)nc(N4CCOCC4)n3)cc2)cc1					1 (≈ 1.93 µM)		24	
O=C(Nc1ccc(Cl)cc1)Nc1ccc(-c2nc(N3CCOCC3)nc(N3CCOCC3)n2)cc1	6.7				1 (≈ 2.02 µM)	407	293	
O=C(Nc1ccncc1)Nc1ccc(-c2nc(N3CCOCC3)nc(N3CCOCC3)n2)cc1	1.2			1.4		45	43	
O=C(Nc1ccc(-c2nc(N3CCOCC3)nc(N3CCOCC3)n2)cc1)Nc1cccs1				2.4	2 (≈ 4.28 µM)		218	
O=C(Nc1ccc(F)cc1)Nc1ccc(-c2nc(N3CCOCC3)nc(N3CCOCC3)n2)cc1	3.9		6.5	1		118	193	
O=C(Nc1ccc(CO)cc1)Nc1ccc(-c2nc(N3CCOCC3)nc(N3CCOCC3)n2)cc1				0.2		30	30	
Cc1ccc(NC(=O)Nc2ccc(-c3nc(N4CCOCC4)nc(N4CCOCC4)n3)cc2)cc1				5.6		200	364	
O=C(Nc1ccc(-c2nc(N3CCOCC3)nc(N3CCOCC3)n2)cc1)Nc1ccc(F)cc1F					1 (≈ 2.01 µM)	794	5630	
CCNC(=O)Nc1ccc(-c2nc(N3CCOCC3)nc(N3CCOCC3)n2)cc1	10			0.7	1 (≈ 2.42 µM)			
O=C(Nc1ccc(C(=O)O)cc1)Nc1ccc(-c2nc(N3CCOCC3)nc(N3CCOCC3)n2)cc1	1.5				52 (≈ 103 µM)	816	28	
O=C(Nc1ccccc1)Nc1ccc(-c2nc(N3CCOCC3)nc(N3CCOCC3)n2)cc1	3.9			0.2		56	107	
CN(C)CCN(C)C(=O)c1ccc(NC(=O)Nc2ccc(-c3nc(N4CCOCC4)nc(N4CCOCC4)n3)cc2)cc1.Cl	0.6	9		0.03	9	9.8	18.3	
